Structures can show the parent of a compound that is named as a salt.
What was measured:
[1] = biological target: T1, human norepinephrine transporter (hNET) (Homo sapiens, UniProt P23975); test: hNET receptor binding ([125I]-RTI-55 displacement, membranes of transfected HEK-293 cells); conditions: HEK-293 membranes, Ki from IC50 by Cheng-Prusoff, read-out: NET Ki
T1 construct: expressed in transfected cells; host or cells: HEK-293 cells (membrane preparation)
In short: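 Membranes from HEK-293 cells expressing human NET were incubated 90 min at room temperature with 50 pM [125I]-RTI-55 and compound (10^−5 to 10^−12 M) in Krebs-HEPES buffer, pH 7.4. Bound radioligand was counted after filtration, with nonspecific binding defined by 10 μM desipramine. IC50 was converted to Ki by Cheng-Prusoff.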

[2] = tested on: capsaicin-induced mechanical allodynia; test: Rat model of capsaicin-induced mechanical allodynia (paw withdrawal threshold, Von Frey); assay type: in vivo; conditions: male Sprague-Dawley rats, mean of eight animals; for inhibition in vivo at 10 mg/kg: Rattus norvegicus, po, 2 h, oral single dose 10 mg/kg, contralateral PWT at 2 hours after dose, read-out: % inhibition +/− SEM
Protocol: In certain embodiments, the compounds of formula I may be assayed for their ability to alleviate capsaicin-induced mechanical allodynia in a rat (e.g., Sluka, K A, (2002) J of Neuroscience, 22(13): 5687-5693). For example, a rat model of capsaicin-induced mechanical allodynia) can be carried out as follows:
On day 0, male Sprague-Dawley rats (˜150 g) in the dark cycle are placed in suspended wire-bottom cages and allowed to acclimate for 0.5 h in a darkened, quiet room. The day 0 paw withdrawal threshold (PWT) is determined on the left hind paw by Von Frey hair assessment using the Dixon up and down method. After assessment, the plantar muscle of the right hind paw is injected with 100 μl capsaicin (0.25% in 10% ethanol, 10% Tween 80, in sterile saline). On day 6 the PWT of the left hindpaw (contralateral from injection site) is determined for each animal. Animals from the day 6 prereads with PWT≦11.7 g are considered allodynic responders and are regrouped so that each cage had similar mean PWT values. On day 7, responders are dosed (e.g., orally, intraperitoneally, and subcutaneously, etc.) with 10 ml/kg vehicle (0.5% HPMC(hydroxy-propylmethylcellulose)/0.2% Tween™ 80), or vehicle plus compound. The contralateral PWT values are determined at 2 hours (or at about the time corresponding to the estimated Cmax) after the single dose, with the investigator blinded to the dosing scheme. Those of skill in the art can determine the appropriate time to determine the contralateral PWT value (e.g., 1 hour, 2 hours, etc.).
For each animal, the day 6 PWT value is subtracted from the 2 hour PWT value to give a delta PWT value that represents the change in PWT due to the 2 hour drug treatment. In addition, the day 6 PWT is subtracted from the day 0 PWT to give the baseline window of allodynia present in each animal. To determine % inhibition of allodynia of each animal normalized for vehicle controls, the following formula is used: % Inhibition of Allodynia=100×(Delta PWT(drug)−mean Delta PWT(vehicle))/(Baseline−mean Delta PWT(vehicle)). Pharmaceutically Acceptable Salts and Solvates
Compounds of the present invention may be assayed for their ability to alleviate capsaicin-induced mechanical allodynia in a rat model (e.g., Sluka (2002) J of Neuroscience, 22(13)5687-5693). For example, a rat model of capsaicin-induced mechanical allodynia was carried out as follows:
On day 0, male Sprague-Dawley rats (˜150 g) in the dark cycle were placed in suspended wire-bottom cages and allowed to acclimate for 0.5 hour in a darkened, quiet room. The day 0 paw withdrawal threshold (PWT) was determined on the left hind paw by Von Frey hair assessment using the Dixon up and down method. After assessment, the plantar muscle of the right hind paw was injected with 100 μl capsaicin (0.25% (w/v) in 10% ethanol, 10% Tween 80, in sterile saline). On day 6 the PWT of the left hindpaw (contralateral from injection site) was determined for each animal. Animals from the day 6 prereads with PWT≦11.7 g were considered allodynic responders and were regrouped so that each cage had similar mean PWT values.
On day 7, responders were dosed subcutaneously with 30 mg of the compound of Example 7/kg body weight, 10 mg of the compound of the compound of Example 48/kg body weight, or with vehicle alone. The vehicle was phosphate buffered saline containing 2% Cremophor®) EL (BASF).
For the animals dosed with the compound of Example 7, the contralateral PWT values were determined at 2 hour after the single dose, with the investigator blinded to the dosing scheme.
For each animal, the day 6 PWT value was subtracted from the 2 hour PWT value for the 10 mg/kg doses to give a delta PWT value that represents the change in PWT due to the […] drug treatment. In addition, the day 6 PWT was subtracted from the day 0 PWT to give the baseline window of allodynia present in each animal. […]

[3] = biological target: T2, human serotonin transporter (hSERT) (Homo sapiens, UniProt P31645); test: hSERT receptor binding ([125I]-RTI-55 displacement, membranes of transfected HEK-293 cells); conditions: HEK-293 membranes, Ki from IC50 by Cheng-Prusoff, read-out: SERT Ki
T2 construct: expressed in transfected cells; host or cells: HEK-293 cells (membrane preparation)
In short: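 Membranes from HEK-293 cells expressing human SERT were incubated 90 min at room temperature in Krebs-HEPES (pH 7.4) with 50 pM [125I]-RTI-55 and compound (10^-12 to 10^-5 M), in duplicate. Nonspecific binding was defined with 10 μM citalopram. Ki from IC50 by Cheng-Prusoff.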

T2 sequence (P31645 whole entry): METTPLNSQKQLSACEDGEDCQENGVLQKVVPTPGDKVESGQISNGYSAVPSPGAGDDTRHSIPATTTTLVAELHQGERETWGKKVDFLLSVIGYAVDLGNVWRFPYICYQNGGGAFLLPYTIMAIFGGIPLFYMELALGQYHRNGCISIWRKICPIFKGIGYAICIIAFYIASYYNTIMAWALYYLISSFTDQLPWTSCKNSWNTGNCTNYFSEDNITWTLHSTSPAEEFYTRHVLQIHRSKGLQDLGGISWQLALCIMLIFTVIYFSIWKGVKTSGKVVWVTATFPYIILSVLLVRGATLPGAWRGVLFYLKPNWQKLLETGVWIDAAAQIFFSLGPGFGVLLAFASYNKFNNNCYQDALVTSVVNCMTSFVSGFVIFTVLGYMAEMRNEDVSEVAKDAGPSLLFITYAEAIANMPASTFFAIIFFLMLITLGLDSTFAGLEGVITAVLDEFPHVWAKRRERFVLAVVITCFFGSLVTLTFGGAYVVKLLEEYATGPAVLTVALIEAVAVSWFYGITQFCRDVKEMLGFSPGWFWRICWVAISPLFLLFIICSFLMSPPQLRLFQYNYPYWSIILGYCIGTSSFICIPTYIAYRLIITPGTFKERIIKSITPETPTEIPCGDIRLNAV
T1 sequence (P23975 whole entry): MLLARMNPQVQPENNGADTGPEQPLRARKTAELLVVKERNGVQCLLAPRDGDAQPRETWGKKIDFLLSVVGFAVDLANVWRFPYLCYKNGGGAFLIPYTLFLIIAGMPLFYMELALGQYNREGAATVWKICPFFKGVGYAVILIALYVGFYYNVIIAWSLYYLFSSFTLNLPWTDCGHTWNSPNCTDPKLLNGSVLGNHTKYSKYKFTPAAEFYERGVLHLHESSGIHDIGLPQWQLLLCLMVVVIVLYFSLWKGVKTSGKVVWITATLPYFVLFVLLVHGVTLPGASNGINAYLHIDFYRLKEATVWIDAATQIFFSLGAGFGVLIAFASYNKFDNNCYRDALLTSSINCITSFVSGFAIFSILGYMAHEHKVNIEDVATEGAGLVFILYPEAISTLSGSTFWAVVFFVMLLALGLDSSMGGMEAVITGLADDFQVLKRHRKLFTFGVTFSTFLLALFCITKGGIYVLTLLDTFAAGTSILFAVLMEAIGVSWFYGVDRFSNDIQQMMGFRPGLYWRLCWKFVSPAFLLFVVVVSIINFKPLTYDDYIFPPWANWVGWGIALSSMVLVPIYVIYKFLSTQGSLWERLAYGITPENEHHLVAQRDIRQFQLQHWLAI

SMILES: Fc1ccc(F)c(-n2nc(OC[C@H]3CCNC3)c3ccccc32)c1 [Example 32, (S)-1-(2,5-Difluoro-phenyl)-3-(pyrrolidin-3-ylmethoxy)-1H-indazole hydrochloride]
- Ki [1]: 3.41 nM
- inhibition in vivo at 10 mg/kg [2]: 60.7%
- Ki [3]: 33.6 nM

SMILES: Fc1ccc(-n2nc(OC3CCNCC3)c3ccccc32)cc1 [Example 42, 1-(4-Fluoro-phenyl)-3-(piperidin-4-yloxy)-1H-indazole hydrochloride]
- Ki [1]: 25.9 nM
- inhibition in vivo at 10 mg/kg [2]: 31.7%
- Ki [3]: 81 nM

SMILES: Fc1cccc(-n2nc(OC3CCNCC3)c3ccccc32)c1 [Example 43, 1-(3-Fluoro-phenyl)-3-(piperidin-4-yloxy)-1H-indazole hydrochloride]
- Ki [1]: 17.9 nM
- inhibition in vivo at 10 mg/kg [2]: 55.4%
- Ki [3]: 138 nM

SMILES: Fc1ccc2c(c1)c(OC[C@H]1CCCNC1)nn2-c1ccccc1F [Example 45, (S)-(−)-5-Fluoro-1-(2-fluorophenyl)-3-(piperidin-3-ylmethoxy)-1H-indazole maleate]
- Ki [1]: 3.2 nM
- inhibition in vivo at 10 mg/kg [2]: 46.2%
- Ki [3]: 47.5 nM

SMILES: Fc1ccc(-n2nc(OC[C@@H]3CNCCO3)c3cc(F)ccc32)c(F)c1.O=C(O)/C=C\C(=O)O [Example 48, (S)-(+)-1-(2,4-Difluorophenyl)-5-fluoro-3-(morpholin-2-ylmethoxy)-1H-indazole maleate]
- Ki [1]: 10.2 nM
- % Inhibition of Allodynia +/− SEM ([2]; subcutaneous single dose 10 mg/kg, contralateral PWT at 1 hour after dose): 74.9% +/− 14.8
- Ki [3]: 298 nM

SMILES: Fc1ccc2c(c1)c(OC1CCNCC1)nn2-c1ccccc1F [Example 51, 5-Fluoro-1-(2-fluoro-phenyl)-3-(piperidin-4-yloxy)-1H-indazole hydrochloride]
- Ki [1]: 11.9 nM
- inhibition in vivo at 10 mg/kg [2]: 26%
- Ki [3]: 53.7 nM

SMILES: Fc1ccc(-n2nc(OC3CCNCC3)c3cc(F)ccc32)c(F)c1 [Example 56, 1-(2,4-Difluoro-phenyl)-5-fluoro-3-(piperidin-4-yloxy)-1H-indazole hydrochloride]
- Ki [1]: 6.13 nM
- inhibition in vivo at 10 mg/kg [2]: 11%
- Ki [3]: 9.99 nM

SMILES: Fc1ccccc1-n1nc(OC2CCNCC2)c2c(F)cccc21 [Example 100, 4-Fluoro-1-(2-fluoro-phenyl)-3-(piperidin-4-yloxy)-1H-indazole hydrochloride]
- Ki [1]: 4.63 nM
- inhibition in vivo at 10 mg/kg [2]: 8.7%
- Ki [3]: 102 nM

Reference: patent US7423054B2, “Therapeutic pyrazolo[3,4-b]pyridines and indazoles” (Warner Lambert Company LLC, priority 2004, dated 2008)
